Biological target: T1, Recombinant human renin (Homo sapiens, UniProt P00797)
T1 construct: isolate the active form (residues 67-406); made in house; host or cells: FreeStyle 293-F cells, transient expression of pcDNA3.1(+)/hREN
T1 sequence (P00797 67-406): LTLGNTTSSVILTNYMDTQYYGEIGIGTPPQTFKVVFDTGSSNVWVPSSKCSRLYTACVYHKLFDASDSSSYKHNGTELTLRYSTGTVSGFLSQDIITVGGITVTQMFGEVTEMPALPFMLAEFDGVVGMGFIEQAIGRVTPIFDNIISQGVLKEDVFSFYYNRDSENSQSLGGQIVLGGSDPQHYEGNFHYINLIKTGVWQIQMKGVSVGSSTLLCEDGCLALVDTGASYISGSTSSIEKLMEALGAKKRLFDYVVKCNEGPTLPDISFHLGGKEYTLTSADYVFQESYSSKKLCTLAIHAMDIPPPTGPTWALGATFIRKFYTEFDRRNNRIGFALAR
Assay: In vitro enzymatic activity assay of renin inhibitors (fluorescence, QXL520/HiLyteFluo488 peptide substrate)
Format: biochemical
Conditions: recombinant human renin 3 nM, 1 μM substrate, pre-incubated 10 minutes at 37° C., incubation one hour, pH 7.4, 5% DMSO; read-out: IC50 of Exemplified Compounds Against Renin

Row | IC50 [nM] | Compound
1 | > 1000 | COc1ccc(S(=O)(=O)NCCn2c(C(=O)N3CCNCC3)c(-c3ccccc3)n(-c3ccccc3C)c2=O)cc1 [Example 210, 4-Methoxy-N-(2-(2-oxo-4-phenyl-5-(piperazine-1-carbonyl)-3-o-tolyl-2,3-dihydro-1H-imidazol-1-yl)ethyl)benzenesulfonamide]
2 | > 1000 | COc1ccccc1-n1c(-c2ccccc2)c(C(=O)N2CCNCC2)n(CCNC(=O)CC(C)C)c1=O [Example 169, N-(2-(3-(2-Methoxyphenyl)-2-oxo-4-phenyl-5-(piperazine-1-carbonyl)-2,3-dihydro-1H-imidazol-1-yl)ethyl)-3-methylbutanamide]
3 | > 1000 | CC(C)CC(=O)NCCn1c(C(=O)N2CCNCC2)c(-c2ccccc2)n(-c2cccc(N3CCOCC3)c2)c1=O [Example 178, 3-Methyl-N-(2-(3-(3-morpholinophenyl)-2-oxo-4-phenyl-5-(piperazine-1-carbonyl)-2,3-dihydro-1H-imidazol-1-yl)ethyl)butanamide]
4 | 100 to 500 | COc1cccc(Cn2c(C(=O)N3CCNCC3)c(-c3ccccc3)n(-c3ccccc3)c2=O)c1 [Example 83, 1-(3-methoxybenzyl)-3,4-diphenyl-5-(piperazine-1-carbonyl)-1H-imidazol-2(3H)-one]
5 | 100 to 500 | O=C(c1c(-c2ccccc2)n(C2CCCN(S(=O)(=O)c3ccccn3)C2)c(=O)n1Cc1cccc(Oc2ccccc2)c1)N1CCNCC1 (stereo not shown) [Example 103, 1-(3-Phenoxybenzyl)-4-phenyl-5-(piperazine-1-carbonyl)-3-(1-(pyridin-2-ylsulfonyl)piperidin-3-yl)-1H-imidazol-2(3H)-one]
6 | 100 to 500 | COc1ccc(-c2cc(Cn3c(C(=O)N4CCNCC4)c(-c4ccccc4)n(C4CCCCC4)c3=O)ccn2)cn1 [Example 17F, 1-Cyclohexyl-3-((6′-methoxy-2,3′-bipyridin-4-yl)methyl)-5-phenyl-4-(piperazine-1-carbonyl)-1H-imidazol-2(3H)-one]
7 | 500 to 1000 | O=C(c1c(-c2ccccc2)n([C@H]2CCCC[C@H]2O)c(=O)n1Cc1cccc(Oc2ccccc2)c1)N1CCNCC1 [Example 152, 1-((1S,2R)-2-Hydroxycyclohexyl)-3-(3-phenoxybenzyl)-5-phenyl-4-(piperazine-1-carbonyl)-1H-imidazol-2(3H)-one]
8 | > 1000 | CC(=O)N1CCCC(n2c(-c3ccccc3)c(C(=O)N3CCNCC3)n(Cc3cccc(Oc4ccccc4)c3)c2=O)C1 (stereo not shown) [Example 99, 1-(1-Acetylpiperidin-3-yl)-3-(3-phenoxybenzyl)-5-phenyl-4-(piperazine-1-carbonyl)-1H-imidazol-2(3H)-one]
9 | 100 to 500 | O=C(c1c(-c2ccccc2)n(-c2ccccc2)c(=O)n1Cc1ccc2ccccc2c1)N1CCNCC1 [Example 84, 1-(Naphthalen-2-ylmethyl)-3,4-diphenyl-5-(piperazine-1-carbonyl)-1H-imidazol-2(3H)-one]
10 | 500 to 1000 | O=C(c1[nH]c(=O)n(-c2ccc3c(c2)NCCC3)c1C1CC1)N1CCNC[C@H]1Cc1ccccc1 [Example 134, (R)-4-(2-Benzylpiperazine-1-carbonyl)-5-cyclopropyl-1-(1,2,3,4-tetrahydroquinolin-7-yl)-1H-imidazol-2(3H)-one]
11 | < 100 | O=C(c1[nH]c(=O)n(CC2(O)CCCCC2)c1-c1ccccc1)N1CCNC[C@H]1Cc1ccccc1 [Example 130, (R)-4-(2-Benzylpiperazine-1-carbonyl)-1-((1-hydroxycyclohexyl)methyl)-5-phenyl-1H-imidazol-2(3H)-one]
12 | > 1000 | Cc1ccccc1-n1c(-c2ccccc2)c(C(=O)N2CCNCC2)n(CCCNC(=O)c2ccccc2)c1=O [Example 156, N-(3-(2-oxo-4-Phenyl-5-(piperazine-1-carbonyl)-3-o-tolyl-2,3-dihydro-1H-imidazol-1-yl)propyl)benzamide]
13 | 100 to 500 | COCCOc1cccc(Cn2c(C(=O)N3CCNCC3)c(-c3ccccc3)n(-c3ccccc3C)c2=O)c1 [Example 186, 1-(3-(2-Methoxyethoxy)benzyl)-4-phenyl-5-(piperazine-1-carbonyl)-3-o-tolyl-1H-imidazol-2(3H)-one]
14 | < 100 | COCCN1CCOc2ccc(-n3c(-c4ccccc4)c(C(=O)N4CCNC[C@H]4Cc4ccccc4)[nH]c3=O)cc21 [Example 137, (R)-4-(2-Benzylpiperazine-1-carbonyl)-1-(4-(2-methoxyethyl)-3,4-dihydro-2H-benzo[b][1,4]oxazin-6-yl)-5-phenyl-1H-imidazol-2(3H)-one]
15 | 100 to 500 | Cc1ccccc1-n1c(-c2ccccc2)c(C(=O)N2CCNCC2)n(CCCNS(=O)(=O)c2cccc(Cl)c2)c1=O [Example 218, 3-Chloro-N-(3-(2-oxo-4-phenyl-5-(piperazine-1-carbonyl)-3-o-tolyl-2,3-dihydro-1H-imidazol-1-yl)propyl)benzenesulfonamide]
16 | < 100 | O=C(c1[nH]c(=O)n(-c2ccc3c(c2)NCC3)c1-c1ccccc1)N1CCNC[C@H]1Cc1ccccc1 [Example 136, (R)-4-(2-Benzylpiperazine-1-carbonyl)-1-(indolin-6-yl)-5-phenyl-1H-imidazol-2(3H)-one]

Row | IC50 [nM] | Compound
17 | < 100 | O=C(c1[nH]c(=O)n(-c2ccc3c(c2)NCCC3)c1-c1ccccc1)N1CCNC[C@H]1Cc1ccccc1 [Example 132, (R)-4-(2-Benzylpiperazine-1-carbonyl)-5-phenyl-1-(1,2,3,4-tetrahydroquinolin-7-yl)-1H-imidazol-2(3H)-one]
18 | < 100 | CS(=O)(=O)Nc1ccccc1-n1c(-c2ccccc2)c(C(=O)N2CCNC[C@H]2Cc2ccccc2)[nH]c1=O [Example 118, (R)—N-(2-(4-(2-Benzylpiperazine-1-carbonyl)-2-oxo-5-phenyl-2,3-dihydro-1H-imidazol-1-yl)phenyl)methanesulfonamide]
19 | < 100 | COc1cccc(-n2c(-c3ccccc3)c(C(=O)N3CCNC[C@H]3Cc3ccccc3)[nH]c2=O)c1OC [Example 112, (R)-4-(2-Benzylpiperazine-1-carbonyl)-1-(2,3-dimethoxyphenyl)-5-phenyl-1H-imidazol-2(3H)-one]
20 | 100 to 500 | O=C(c1c(-c2ccccc2)n(C2CCCN(S(=O)(=O)c3ccccc3)C2)c(=O)n1Cc1cccc(Oc2ccccc2)c1)N1CCNCC1 (stereo not shown) [Example 102, 1-(3-Phenoxybenzyl)-4-phenyl-3-(1-(phenylsulfonyl)piperidin-3-yl)-5-(piperazine-1-carbonyl)-1H-imidazol-2(3H)-one]
21 | < 100 | COCCn1c(C(=O)N2CCNC[C@H]2Cc2ccccc2)c(-c2ccccc2)n(C2CCCCC2)c1=O [Example 66, (R)-4-(2-Benzylpiperazine-1-carbonyl)-1-cyclohexyl-3-(2-methoxyethyl)-5-phenyl-1H-imidazol-2(3H)-one]
22 | 500 to 1000 | O=C(c1c(-c2ccccc2)n(C2CCCCC2)c(=O)n1Cc1cc(Cl)nc(N2CCOCC2)c1)N1CCNCC1 [Example 90, 1-((2-Chloro-6-morpholinopyridin-4-yl)methyl)-3-cyclohexyl-4-phenyl-5-(piperazine-1-carbonyl)-1H-imidazol-2(3H)-one]
23 | > 1000 | C[C@@H]1CN(C(=O)c2[nH]c(=O)n(C3CCCCC3)c2-c2ccccc2)CCN1 [Example 37, (R)-1-Cyclohexyl-4-(3-methylpiperazine-1-carbonyl)-5-phenyl-1H-imidazol-2(3H)-one]
24 | > 1000 | O=C(c1c(-c2ccccc2)n([C@H]2CCCC[C@H]2O)c(=O)n1Cc1ccc(F)c(F)c1)N1CCNCC1 [Example 154, 1-(3,4-Difluorobenzyl)-3-((1S,2R)-2-hydroxycyclohexyl)-4-phenyl-5-(piperazine-1-carbonyl)-1H-imidazol-2(3H)-one]
25 | > 1000 | CC(=O)N1CCCC(n2c(-c3ccccc3)c(C(=O)N3CCNCC3)[nH]c2=O)C1 (stereo not shown) [Example 94, 1-(1-Acetylpiperidin-3-yl)-5-phenyl-4-(piperazine-1-carbonyl)-1H-imidazol-2(3H)-one]
26 | > 1000 | Cc1ccccc1-n1c(-c2ccccc2)c(C(=O)N2CCNCC2)n(CCCNC(=O)c2ccccc2Cl)c1=O [Example 241, 2-Chloro-N-(3-(2-oxo-4-phenyl-5-(piperazine-1-carbonyl)-3-o-tolyl-2,3-dihydro-1H-imidazol-1-yl)propyl)benzamide]
27 | > 1000 | COCCCOc1cccc(-n2c(-c3ccccc3)c(C(=O)N3CCNCC3)n(CCCNC(=O)CC(C)C)c2=O)c1 [Example 181, N-(3-(3-(3-(3-Methoxypropoxy)phenyl)-2-oxo-4-phenyl-5-(piperazine-1-carbonyl)-2,3-dihydro-1H-imidazol-1-yl)propyl)-3-methylbutanamide]
28 | 100 to 500 | Cc1ccccc1-n1c(-c2ccccc2)c(C(=O)N2CCNCC2)n(CCNC(=O)Nc2ccccc2)c1=O [Example 211, 1-(2-(2-Oxo-4-phenyl-5-(piperazine-1-carbonyl)-3-o-tolyl-2,3-dihydro-1H-imidazol-1-yl)ethyl)-3-phenylurea]
29 | > 1000 | O=C(c1[nH]c(=O)n(-c2ccccn2)c1-c1ccccc1)N1CCNCC1 [Example 19, 5-Phenyl-4-(piperazine-1-carbonyl)-1-(pyridin-2-yl)-1H-imidazol-2(3H)-one]
30 | 500 to 1000 | COCCCOc1cccc(-n2c(-c3ccccc3)c(C(=O)N3CCNCC3)n(Cc3ccc(F)c(F)c3)c2=O)c1 [Example 164, 1-(3,4-Difluorobenzyl)-3-(3-(3-methoxypropoxy)phenyl)-4-phenyl-5-(piperazine-1-carbonyl)-1H-imidazol-2(3H)-one]
31 | 100 to 500 | COc1cccc(Cn2c(C(=O)N3CCNCC3)c(-c3ccccc3)n(-c3cccc(N4CCOCC4)c3)c2=O)c1 [Example 151, 1-(3-Methoxybenzyl)-3-(3-morpholinophenyl)-4-phenyl-5-(piperazine-1-carbonyl)-1H-imidazol-2(3H)-one]

Reference: patent US8148367B2 (Takeda Pharmaceutical Company Limited, priority 2008, dated 2012)
